Experimental data taken from US5622944A, “Testosterone prodrugs for improved drug delivery” (Affymax Technologies N.V., priority 1995, dated 1997).
Structures can show the parent of a compound that is named as a salt.

What was measured:
in vitro [1] = assay type: in vitro ADME; details: 37° C.; for half-life: human, serum
Procedure: The hydrolytic activity of the sterol prodrug may be evaluated by studies of the chemical or enzymatic conversion of the prodrug to the unmodified parent compound, as described in Example 26.
Generally, the sterol/chemical modifier complex is dissolved in a minimum amount of a suitable solvent, such as ethanol, and the resulting solution is added to a sample of human serum. Following incubation, aliquots are then removed at various time points and analyzed to determine the extent of hydrolysis. Table I herein lists the representative serum half-lives of a number of testosterone prodrugs according to the present invention.
The rates of conversion are readily determined, for example by spectrophotometric methods or by gas-liquid or high performance liquid chromatography. Half-lives and other kinetic parameters may then be calculated using standard techniques.
Determination of Testosterone Prodrug Hydrolysis in Serum
Stock solutions (6 mM) of the testosterone prodrugs were prepared in ethanol (dissolution was accomplished by vortexing, sonication, or warming at 37° C., as needed). If required for dissolution, one drop of a co-solvent such as dimethylsulfoxide, dimethylformamide or methanol was added. (Acetonitrile is undesirable because it deactivates the serum enzymes).
HPLC separation methods were established for each study by dilution of the above stock solutions (6 μl) in acetonitrile (1 ml) to form 36 μM solutions. Samples (10 μl) were injected onto a Nucleosil 5C8 column (250×4 mm ID) fitted with an additional guard column (11×4 mm ID) and eluted with a mobile phase of approximately 65% HPLC grade water and 35% trifluoroacetic acid in acetonitrile (0.1% TFA in acetonitrile). Exact proportions of the mobile phase eluents were adjusted in each case to give optimum separation and run times.
Freshly defrosted human serum (3 ml, Sigma) was warmed at 37° C. for five minutes and then the testosterone prodrug stock solution (60 μl) was added with vortexing. […] The aliquots were added to 800 μl of 2% zinc sulfate solution in a 1.5 ml disposable microcentrifuge tube, vortexed immediately and centrifuged at 14,000 RPM for 3 minutes. The supernatants (10 μl) were injected onto the HPLC and peak areas used to determine the percent of parent drug formed or percent of prodrug remaining. Serum blanks were prepared similarly by addition of serum to the zinc sulfate solution, followed by centrifugation. Initial (time=0) samples were prepared by adding serum to the zinc sulfate solution, followed by addition of the complex and separation by centrifugation. The time=0 samples, as well as the original stock solutions, were also used to assess the stability of the complex in the absence of enzyme. Half-lives were determined using the following equation : […]
and plotting time (x ordinate) versus the natural logarithm of percent remaining prodrug (y ordinate) to obtain the slope (m) and the y intercept (b).

in vitro [2] = assay type: cell-based, human; details: human, dermal fibroblasts, MTT; for CC50 at 2 h: IC50 2 h (cytotoxicity), 2 h incubation; for CC50 at 16 h: IC50 16 h (cytotoxicity), 16 h incubation
Procedure: As discussed above, the chemical modifier, when present in the subject in its free or released form, and in appropriately administered amounts, should preferably be non-toxic. Additionally, any further in vivo degradation products of the chemical modifier should be non-toxic, as well. Table 2 provides in vitro relative cytotoxicity data for a number of testosterone/chemical modifier complexes, prepared in accordance with the invention. The cytotoxicity assessment was carried out by examining the viability of human dermal fibroblasts in the presence of a number of testosterone/chemical modifier complexes in accordance with the present invention. Details of the experimental protocol are summarized in Example 27.
The viability of human dermal fibroblasts in the presence of the 17-hydroxy sterol/chemical modifier compounds was assayed using MTT (3-[4,5-dimethylthiazol-2-yl]-2,5-diphenyltetrazolium bromide) reduction to formazan by mitochondrial enzymes as an indicator of cytotoxicity (Swisher, et al.). Confluent fibroblast cells were incubated for 2 or 16 hours in the presence of increasing concentrations of drug complex. At the end of the incubation period, medium was replaced for 4 hours by medium containing the tetrazolium salt, MTT. Metabolism of MTT to a blue formazan was quantitated by spectrophotometry at 540 nm.

[3] = assay type: in vitro ADME, mouse; details: for Flux, active electrotransport (ET): murine skin, active cells (ETm), 10 mM donor, 100 uA/cm^2, 6 h, 32° C.; for Enhancement in in vitro electrotransport skin flux compared to testosterone: hairless mouse skin, vs unmodified testosterone, 'nearly 10-fold enhancement or greater'
Procedure: In vitro electrotransport of testosterone/chemical modifier complexes across hairless mouse skin was evaluated as described in Example 28. The experiments were conducted using modified Valia-Chien cells having 1.0 ml donor and 2.5 ml receptor cells. Anodic transport was carried out using a silver wire-based salt bridge in the donor compartment and a silver chloride cathode in the receptor. Cathodic transport was effected by reversing the electrode configuration. The cells were connected in series and a constant current and temperature were supplied to each cell.
After a predetermined period of time (6 h), aliquots were removed from the receiver phase for immediate analysis by HPLC to determine cumulative flux.
The electrotransport of testosterone/chemical modifier complexes was achieved using modified Valia-Chien cells (1.0 ml donor and 2.5 ml receptor cells). Full thickness, hairless mouse skin (Charles River Labs, Wilmington, Mass.) was soaked for one hour in phosphate buffered saline (PBS, pH=7.4) before placing between each compartment (dermal side of skin facing toward receptor). One passive (P1:data) and two or more (ETm :data) active cells were used to screen each compound.
A 10 mM (1 ml) aqueous solution of testosterone drug/prodrug was placed in the donor (unstirred) compartment and the receptor (stirred) was filled with 2.5 ml of PBS. In order to check for egress due to e.g. damaged skin, a zero hour sample of receptor ([…]) was taken one half hour after the drug solution was placed in the donor compartment. Replacement fluid of equal sample volume was added to the receptor compartment immediately after samples were taken.
Anodic electrotransport was achieved using a silver wire (immersed in a polyvinylalcohol-based salt bridge to minimize junction potential) in the donor compartment and a AgCl cathode in the receptor. […] The electrotransport cells were connected in series and constant current (100 uA/cm^2, […] for a skin area of 0.64 cm^2) and temperature (32° C.) were supplied to each cell. After six hours of active/passive transport, aliquots (200 ul) of the receptor were sampled and immediately analyzed by HPLC.
A standard plot of peak area and concentration for each compound was constructed using HPLC. The peak areas of the samples were determined and the concentrations calculated using the standard data. Cumulative flux was calculated using Quickbasic and reported in nmol/cm^2 /hr.

[4] = Water solubility (H2O sol); details: H2O sol

What does the source list for `C[C@]12CC[C@H]3[C@@H](CCC4=CC(=O)CC[C@@]43C)[C@@H]1CC[C@@H]2OC(=O)CCCC[N+](C)(C)C` [Code 2.4]?
half-life (in vitro [1]; HPLC): ~720 h; CC50 at 2 h (in vitro [2]): 609 µM; CC50 at 16 h (in vitro [2]): 568 µM; Flux, active electrotransport (ET) [3]: 2.7 ± 1.1 nmol/cm^2 /hr; Degradation (Degradation (%/d)): 0 %/d; solubility [4]: 18 mg/mL

With `C[C@]12CC[C@H]3[C@@H](CCC4=CC(=O)CC[C@@]43C)[C@@H]1CC[C@@H]2OC(=O)CC[N+](C)(C)C` [Code 2.5, testosterone-17β-(N,N,N-trimethyl-β-alaninyl ester), bromide salt] as the compound, how does the half-life (in vitro [1]; footnote 1: prodrug remaining, no testosterone formed) read?
The half-life was about 0.167 h.

And the CC50 at 2 h (in vitro [2])?
The CC50 at 2 h was over 600 µM.

What about the CC50 at 16 h (in vitro [2]) of the same compound?
Its CC50 at 16 h is 329 µM.

And the “Enhancement in in vitro electrotransport skin flux compared to testosterone” value [3]?
Its value is at least 10 fold.

What about the “Flux, active electrotransport (ET)” value [3] of the same compound?
The value was 18.0 ± 2.4 nmol/cm^2 /hr.

What about the Degradation (Degradation (%/d)) of the same compound?
Its Degradation is 0 %/d.

And the solubility [4]?
The solubility was 0.3 mg/mL.

With `CC(=O)O[C@@H]1C[C@@H](C(=O)O[C@H]2CC[C@H]3[C@@H]4CCC5=CC(=O)CC[C@]5(C)[C@H]4CC[C@]23C)[N+](C)(C)C1` [Code 2.6, testosterone-17β-[(O-acetyl)-betonicinyl ester], chloride salt] as the compound, how does the half-life (in vitro [1]; HPLC) read?
Its half-life is 8.2 h.

And the CC50 at 2 h (in vitro [2])?
Its CC50 at 2 h is 733 µM.

What about the CC50 at 16 h (in vitro [2]) of the same compound?
Its CC50 at 16 h is 271 µM.

And the “Flux, active electrotransport (ET)” value [3]?
Its value is 0 nmol/cm^2 /hr.

What about the Degradation (Degradation (%/d)) of the same compound?
The Degradation was 0 %/d.

And the solubility [4]?
The solubility was 21 mg/mL.

With `C[n+]1cccc(C(=O)O[C@H]2CC[C@H]3[C@@H]4CCC5=CC(=O)CC[C@]5(C)[C@H]4CC[C@]23C)c1` [Code 2.8] as the compound, how does the half-life (in vitro [1]; HPLC) read?
Its half-life is 25.5 h.

And the CC50 at 2 h (in vitro [2])?
The CC50 at 2 h was 598 µM.

What about the CC50 at 16 h (in vitro [2]) of the same compound?
Its CC50 at 16 h is 492 µM.

What about the “Flux, active electrotransport (ET)” value [3] of the same compound?
The value was 3.1 ± 1.2 nmol/cm^2 /hr.

And the Degradation (Degradation (%/d))?
The Degradation was 0 %/d.

And the solubility [4]?
Its solubility is 0.8 mg/mL.

With `C[C@]12CC[C@H]3[C@@H](CCC4=CC(=O)CC[C@@]43C)[C@@H]1CC[C@@H]2OC(=O)OCOC(=O)CCCCC[N+](C)(C)C` [Code 3.2, testosterone-17β-[6-(N,N,N-trimethylammonio)hexanoyloxy-methyl]carbonate iodide salt] as the compound, how does the half-life (in vitro [1]; HPLC) read?
The half-life was 0.217 h.

What about the CC50 at 2 h (in vitro [2]) of the same compound?
The CC50 at 2 h was 615 µM.

What about the CC50 at 16 h (in vitro [2]) of the same compound?
The CC50 at 16 h was 406 µM.

And the “Flux, active electrotransport (ET)” value [3]?
The value was 4.8 ± 0.6 nmol/cm^2 /hr.

What about the Degradation (Degradation (%/d)) of the same compound?
Its Degradation is 77 %/d.

And the solubility [4]?
The solubility was 20 mg/mL.

With `C[C@]12CC[C@H]3[C@@H](CCC4=CC(=O)CC[C@@]43C)[C@@H]1CC[C@@H]2OC(=O)Oc1ccc(CC[N+](C)(C)C)cc1` [Code 3.4, testosterone-17β-candicine carbonate, iodide salt] as the compound, how does the half-life (in vitro [1]; HPLC) read?
The half-life was 5.8 h.

And the CC50 at 2 h (in vitro [2])?
The CC50 at 2 h was 544 µM.

What about the CC50 at 16 h (in vitro [2]) of the same compound?
Its CC50 at 16 h is 44.6 µM.

And the “Flux, active electrotransport (ET)” value [3]?
The value was 0 nmol/cm^2 /hr.

What about the Degradation (Degradation (%/d)) of the same compound?
The Degradation was 1 %/d.

And the solubility [4]?
The solubility was 0.1 mg/mL.

Which Serum half-life (in vitro [1]; human serum, HPLC, hydrochloride salt) does the source give for `COC(=O)[C@H](COC(=O)O[C@H]1CC[C@H]2[C@@H]3CCC4=CC(=O)CC[C@]4(C)[C@H]3CC[C@]12C)N(C)C` [Code 3.6, testosterone-17β-(N,N-dimethyl-L-serine methyl ester) carbonate, hydrochloride salt] here?
Its Serum half-life is 0.75 h.

And the CC50 at 2 h (in vitro [2])?
The CC50 at 2 h was 224 µM.

What about the CC50 at 16 h (in vitro [2]) of the same compound?
Its CC50 at 16 h is 157 µM.

What about the “Flux, active electrotransport (ET)” value [3] of the same compound?
The value was 6.8 ± 0.3 nmol/cm^2 /hr.

What about the Degradation (Degradation (%/d)) of the same compound?
The Degradation was 3.8 %/d.

And the solubility [4]?
Its solubility is 20 mg/mL.

For `C[C@]12CC[C@H]3[C@@H](CCC4=CC(=O)CC[C@@]43C)[C@@H]1CC[C@@H]2OC(=O)C=CC[N+](C)(C)C` [Code 3.8, testosterone-17β-[(4-N,N,N-trimethylammonio) crotonate], chloride salt], which half-life (in vitro [1]; HPLC) is on record?
Its half-life is 122 h.

And the CC50 at 2 h (in vitro [2])?
The CC50 at 2 h was 2290 µM.

What about the CC50 at 16 h (in vitro [2]) of the same compound?
The CC50 at 16 h was 583 µM.

What about the “Enhancement in in vitro electrotransport skin flux compared to testosterone” value [3] of the same compound?
The value was at least 10 fold.

What about the “Flux, active electrotransport (ET)” value [3] of the same compound?
Its value is 9.4 ± 1.2 nmol/cm^2 /hr.

What about the Degradation (Degradation (%/d)) of the same compound?
Its Degradation is 0 %/d.

What about the solubility [4] of the same compound?
Its solubility is 21 mg/mL.
